According to ChEMBL document CHEMBL1201862, “PubChem BioAssay data set” (2004):
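Dose response: 5 concentrations. Exposure: 48 h. Format: 96-well plates. Endpoint: linear interpolation; highest concentration if not reached. At the GI50, growth is halved.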 The source made the active and inactive calls. No stated cut-off is given here; in the data, active = GI50 up to about 1.1 µM and inactive = higher.

What was measured:
Test in all cases: growth of human tumour cells (NCI), 48 h
RPMI-8226 = system: RPMI-8226
SK-MEL-5 = system: SK-MEL-5
IGROV-1 = system: IGROV-1
SNB-19 = system: SNB-19
NCI/ADR-RES = system: NCI/ADR-RES
OVCAR-5 = system: OVCAR-5
UACC-62 = system: UACC-62
MDA-MB-231 = system: MDA-MB-231
EKVX = system: EKVX
SF-295 = system: SF-295
SK-MEL-2 = system: SK-MEL-2
SK-MEL-28 = system: SK-MEL-28
A549 = system: A549
CAKI-1 = system: CAKI-1
OVCAR-8 = system: OVCAR-8
MOLT-4 = system: MOLT-4
UACC-257 = system: UACC-257
KM12 = system: KM12

SMILES	GI50 (RPMI-8226)	GI50 (SK-MEL-5)	GI50 (IGROV-1)	GI50 (SNB-19)	GI50 (NCI/ADR-RES)	GI50 (OVCAR-5)	GI50 (UACC-62)	GI50 (MDA-MB-231)	GI50 (EKVX)	GI50 (SF-295)	GI50 (SK-MEL-2)	GI50 (SK-MEL-28)	GI50 (A549)	GI50 (CAKI-1)	GI50 (OVCAR-8)	GI50 (MOLT-4)	GI50 (UACC-257)	GI50 (KM12)
CCCCNc1nc(SC)nc2[nH]cnc12	> 100 µM (inactive)	> 100 µM (inactive)	> 100 µM (inactive)	> 74 µM (inactive)	> 100 µM (inactive)	> 100 µM (inactive)	> 100 µM (inactive)	> 81.1 µM (inactive)	> 87.7 µM (inactive)	> 100 µM (inactive)	> 100 µM (inactive)	> 100 µM (inactive)	> 100 µM (inactive)	> 100 µM (inactive)	> 64.4 µM (inactive)	> 100 µM (inactive)	> 100 µM (inactive)	> 100 µM (inactive)
C=C1C[C@H](O)[C@H](Br)C(C)(C)C12CCC(C)(Cl)C(Br)C2 (stereo not given in full)	0.589 µM (active)	3.04 µM (inactive)	4.38 µM (inactive)	1.23 µM (inactive)	4.58 µM (inactive)	0.762 µM (active)	5.85 µM (inactive)	2.72 µM (inactive)	0.286 µM (active)	1.19 µM (inactive)	1 µM (active)	7.74 µM (inactive)	0.566 µM (active)	5.09 µM (inactive)	1.23 µM (inactive)	0.451 µM (active)	0.526 µM (active)	1.48 µM (inactive)
CN1C(=O)C2(Cc3cn(C45CC67SSC(CO)(C(=O)N6C4Nc4ccccc45)N(C)C7=O)c4ccccc34)SSC1(CO)C(=O)N2C (stereo not given)	0.0139 µM (active)	0.1 µM (active)	0.0165 µM (active)	0.271 µM (active)	0.0197 µM (active)	0.12 µM (active)	0.0239 µM (active)	0.0133 µM (active)	0.0282 µM (active)	0.309 µM (active)	0.1 µM (active)	0.084 µM (active)	0.172 µM (active)	< 0.01 µM (active)	0.0206 µM (active)	0.0405 µM (active)	0.0188 µM (active)	0.139 µM (active)
COc1cc(/C=C2\N=C(c3ccccc3)N(c3nc4ccc(Sc5ccccc5)cc4[nH]3)C2=O)ccc1O	16.7 µM (inactive)	14.7 µM (inactive)	37.8 µM (inactive)	31.8 µM (inactive)	18.7 µM (inactive)	26.1 µM (inactive)	15.2 µM (inactive)	25.6 µM (inactive)	31.5 µM (inactive)	27.9 µM (inactive)	13.5 µM (inactive)	21.2 µM (inactive)	30.5 µM (inactive)	23.9 µM (inactive)	27.6 µM (inactive)	26.1 µM (inactive)	18 µM (inactive)	15.2 µM (inactive)
CCOC(=O)C(Cc1ccc(N(CCCl)CCCl)cc1)NC(=O)CCCN1C(=O)CN=C(c2ccccc2)c2cc(Cl)ccc21 (stereo not given)	3.48 µM (inactive)	12.4 µM (inactive)	4.37 µM (inactive)	> 100 µM (inactive)	22 µM (inactive)	> 100 µM (inactive)	2.72 µM (inactive)	22.1 µM (inactive)	41.3 µM (inactive)	51.4 µM (inactive)	14.7 µM (inactive)	3.03 µM (inactive)	39.1 µM (inactive)	15.2 µM (inactive)	18.7 µM (inactive)	2.44 µM (inactive)	3.6 µM (inactive)	25.5 µM (inactive)
CCN(CC)CCOC(=O)CCN1CC2CCC(CC2)C1	> 100 µM (inactive)	> 100 µM (inactive)	> 100 µM (inactive)	> 100 µM (inactive)	> 100 µM (inactive)	> 100 µM (inactive)	> 100 µM (inactive)	> 100 µM (inactive)	> 100 µM (inactive)	> 100 µM (inactive)	> 100 µM (inactive)	> 100 µM (inactive)	> 100 µM (inactive)	> 100 µM (inactive)	> 100 µM (inactive)	> 100 µM (inactive)	> 100 µM (inactive)	> 100 µM (inactive)
COc1ccc2cc(CN3CCC(C4CCNCC4)CC3)ccc2c1	1.53 µM (inactive)	1.79 µM (inactive)	3.7 µM (inactive)	6.65 µM (inactive)	2.88 µM (inactive)	7.76 µM (inactive)	1.97 µM (inactive)	2.2 µM (inactive)	5.02 µM (inactive)	1.89 µM (inactive)	1.91 µM (inactive)	1.75 µM (inactive)	12.2 µM (inactive)	2.48 µM (inactive)	3.4 µM (inactive)	0.437 µM (active)	1.87 µM (inactive)	2.11 µM (inactive)
O=C1CCN/C(=N\C(=O)C(F)(F)F)N1CCc1c[nH]c2ccccc12	> 100 µM (inactive)	> 100 µM (inactive)	> 100 µM (inactive)	> 100 µM (inactive)	> 100 µM (inactive)	> 100 µM (inactive)	> 100 µM (inactive)	> 100 µM (inactive)	> 100 µM (inactive)	> 100 µM (inactive)	> 100 µM (inactive)	> 100 µM (inactive)	> 100 µM (inactive)	> 100 µM (inactive)	> 100 µM (inactive)	> 100 µM (inactive)	> 100 µM (inactive)	> 100 µM (inactive)
COc1ccc(OC)c(-c2nc3n(c2/C=C2/C(=O)Nc4ccccc42)CCS3)c1	35 µM (inactive)	53.5 µM (inactive)	36 µM (inactive)	> 100 µM (inactive)	34.8 µM (inactive)	> 100 µM (inactive)	48.4 µM (inactive)	25.6 µM (inactive)	> 100 µM (inactive)	29.4 µM (inactive)	26 µM (inactive)	> 100 µM (inactive)	63.7 µM (inactive)	51.4 µM (inactive)	68.1 µM (inactive)	27 µM (inactive)	63.1 µM (inactive)	30.1 µM (inactive)
CCOc1c(OC)cc(C2c3cc4c(c(OCC)c3CC3COC(=O)C32)OCO4)cc1OC (stereo not given)	3.75 µM (inactive)	1.63 µM (inactive)	2.41 µM (inactive)	3.65 µM (inactive)	2.03 µM (inactive)	3.24 µM (inactive)	0.365 µM (active)	2.17 µM (inactive)	12.7 µM (inactive)	1 µM (active)	13.2 µM (inactive)	16.6 µM (inactive)	2.86 µM (inactive)	5.16 µM (inactive)	2.11 µM (inactive)	2.65 µM (inactive)	0.912 µM (active)	0.962 µM (active)
C=C1C(=O)OC2/C=C(\CO)C3OC3C3OC3(C)CC(OC(=O)/C(=C/C)CO)C12 (stereo not given)	17 µM (inactive)	> 100 µM (inactive)	> 100 µM (inactive)	> 100 µM (inactive)	> 100 µM (inactive)	50.7 µM (inactive)	57.3 µM (inactive)	> 100 µM (inactive)	44 µM (inactive)	> 100 µM (inactive)	> 100 µM (inactive)	42.1 µM (inactive)	> 100 µM (inactive)	28.3 µM (inactive)	86.3 µM (inactive)	26.4 µM (inactive)	> 100 µM (inactive)	> 100 µM (inactive)
CCc1ccc(/C=C/C(=O)C2CN(CC)CCC2(O)/C=C/c2ccc(CC)cc2)cc1 (stereo not given)	1.36 µM (inactive)	4.36 µM (inactive)	2.06 µM (inactive)	7.62 µM (inactive)	3.47 µM (inactive)	3.16 µM (inactive)	4.92 µM (inactive)	2.23 µM (inactive)	4.75 µM (inactive)	2.94 µM (inactive)	7.18 µM (inactive)	1.55 µM (inactive)	7.08 µM (inactive)	6.59 µM (inactive)	3.3 µM (inactive)	2.2 µM (inactive)	6.92 µM (inactive)	1.87 µM (inactive)
CC(C)=CC[C@]12CCN[C@H]1N(S(=O)(=O)c1ccccc1)c1ccccc12	18.3 µM (inactive)	14.9 µM (inactive)	10.6 µM (inactive)	21.5 µM (inactive)	14.8 µM (inactive)	> 100 µM (inactive)	13.2 µM (inactive)	19 µM (inactive)	8.17 µM (inactive)	14.8 µM (inactive)	14.2 µM (inactive)	16.4 µM (inactive)	19.9 µM (inactive)	20.1 µM (inactive)	16.8 µM (inactive)	21.1 µM (inactive)	17.6 µM (inactive)	22 µM (inactive)
N=C(N)NS(=O)(=O)c1ccc(Nc2c3ccccc3nc3c(C(=O)NC(CO)(CO)CO)cccc23)cc1	20.1 µM (inactive)	17.5 µM (inactive)	37.6 µM (inactive)	28.1 µM (inactive)	> 100 µM (inactive)	11.9 µM (inactive)	19.5 µM (inactive)	21.8 µM (inactive)	> 100 µM (inactive)	16.6 µM (inactive)	19.1 µM (inactive)	30.5 µM (inactive)	9.66 µM (inactive)	34.5 µM (inactive)	29 µM (inactive)	2.79 µM (inactive)	> 100 µM (inactive)	14.9 µM (inactive)
Oc1cc(-c2ccc(F)cc2)nc2ncc(Cl)cc12	19 µM (inactive)	6.93 µM (inactive)	17.1 µM (inactive)	38 µM (inactive)	18 µM (inactive)	55.3 µM (inactive)	9.71 µM (inactive)	> 65.5 µM (inactive)	30.3 µM (inactive)	18.1 µM (inactive)	26.2 µM (inactive)	58.5 µM (inactive)	35.5 µM (inactive)	33 µM (inactive)	38.5 µM (inactive)	20.7 µM (inactive)	> 68.9 µM (inactive)	6.17 µM (inactive)
